{"source": "patent US11028051B2", "about": "“Tetrahydroquinoline-based bromodomain inhibitors” (St. Jude Children's Research Hospital, priority 2016, dated 2021)", "key": {"BRD2-BD1": {"target": "BRD2-BD1 (Homo sapiens (Human), UniProt P25440)", "sequence (P25440 74-180)": "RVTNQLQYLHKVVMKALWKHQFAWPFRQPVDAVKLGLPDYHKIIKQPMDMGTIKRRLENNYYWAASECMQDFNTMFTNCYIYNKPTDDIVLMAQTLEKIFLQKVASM", "assay": "competitive TR-FRET assay, BET-BD with acetylated peptide ligand", "format": "binding", "conditions": "read-out: EC50 (μM) BRD2(1)", "procedure": "(§1) Inhibitor potency was determined using a competitive TR-FRET assay as detailed herein, measuring interaction of the respective BET-BD with an acetylated peptide ligand (Table 2)."}, "BRD2-BD2": {"target": "BRD2-BD2 (Homo sapiens (Human), UniProt P25440)", "sequence (P25440 344-453)": "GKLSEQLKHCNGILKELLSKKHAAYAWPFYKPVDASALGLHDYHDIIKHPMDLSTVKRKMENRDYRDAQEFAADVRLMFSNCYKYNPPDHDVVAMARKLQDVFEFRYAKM", "assay": "competitive TR-FRET assay, BET-BD with acetylated peptide ligand", "format": "binding", "conditions": "for EC50: read-out: EC50 (μM) BRD2(2)", "procedure": "as §1"}, "BRD3-BD1": {"target": "BRD3-BD1 (Homo sapiens (Human), UniProt Q15059)", "sequence (Q15059 34-140)": "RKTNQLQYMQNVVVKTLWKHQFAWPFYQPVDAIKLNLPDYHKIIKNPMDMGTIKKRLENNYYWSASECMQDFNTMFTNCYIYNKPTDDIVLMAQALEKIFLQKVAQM", "assay": "competitive TR-FRET assay, BET-BD with acetylated peptide ligand", "format": "binding", "procedure": "as §1"}, "BRD4-BD1": {"target": "BRD4-BD1 (Homo sapiens (Human), UniProt O60885)", "assay": "competitive TR-FRET assay, BET-BD with acetylated peptide ligand", "format": "binding", "conditions": "Table 4; read-out: EC50 (μM) BRD4(1)", "procedure": "as §1"}, "BRD4-BD2": {"target": "BRD4-BD2 (Homo sapiens (Human), UniProt O60885)", "assay": "competitive TR-FRET assay, BET-BD with acetylated peptide ligand", "format": "binding", "procedure": "as §1"}, "BRDT": {"target": "BRDT (Homo sapiens, UniProt Q58F21)", "assay": "competitive TR-FRET assay, BET-BD with acetylated peptide ligand", "format": "binding", "procedure": "as §1"}, "[1]": {"tested_on": "c-Myc expression in HDMB03 cells", "assay": "c-Myc expression inhibition, high content microscopy (HCM)", "format": "cell-based, human", "conditions": "Homo sapiens, read-out: EC50 (μM) Myc-inhibition"}, "BRD2(1)": {"target": "BRD2(1) (Homo sapiens (Human), UniProt P25440)", "sequence (P25440 74-180)": "as the sequence (P25440 74-180) above", "assay": "BROMOscan KD determination", "format": "binding", "conditions": "Table 10", "method_in_brief": "(§2)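 BROMOscan panel, ~42 bromodomains; single-point competition at 1 μM cpd vs control per bromodomain. KD determinations run as BROMOscan follow-up.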"}, "BRD2(2)": {"target": "BRD2(2) (Homo sapiens (Human), UniProt P25440)", "sequence (P25440 344-453)": "as the sequence (P25440 344-453) above", "assay": "BROMOscan KD determination", "format": "binding", "method_in_brief": "as §2"}, "BRDT(1)": {"target": "BRDT(1) (Homo sapiens (Human), UniProt Q58F21)", "assay": "BROMOscan KD determination", "format": "binding", "conditions": "Table 10", "method_in_brief": "as §2"}, "BRDT(2)": {"target": "BRDT(2) (Homo sapiens (Human), UniProt Q58F21)", "assay": "BROMOscan KD determination", "format": "binding", "method_in_brief": "as §2"}, "[2]": {"tested_on": "neural crest tumor cell lines", "assay": "activity versus neural crest tumor cell lines", "format": "cell-based", "conditions": "several neural crest tumor cell lines; read-out: IC50 ranges"}}, "note": "Where two headings read alike, the source gives them in different places.", "data": [{"compound": "COC(=O)c1ccc(N[C@@H]2C[C@H](C)N(C(C)=O)c3ccc(-c4cccc(NC(C)=O)c4)cc32)cc1", "note": "[compound 4]", "values": [{"measurement": "EC50", "setting": "BRD2-BD1; Table 4", "value": 0.43, "unit": "µM"}, {"measurement": "EC50", "setting": "BRD2-BD1; Table 6", "value": 1.56, "unit": "µM"}, {"measurement": "EC50", "setting": "BRD2-BD1; Table 8", "value": 1.56, "unit": "µM"}, {"measurement": "[2(1)/2(2)]", "setting": "BRD2-BD2; Table 4, ratio of EC50", "value": 19.5}, {"measurement": "EC50", "setting": "BRD2-BD2; Table 4", "value": 0.022, "unit": "µM"}, {"measurement": "[2(1)/2(2)]", "setting": "BRD2-BD2; Table 6, ratio of EC50", "value": 14.2}, {"measurement": "EC50", "setting": "BRD2-BD2; Table 6", "value": 0.11, "unit": "µM"}, {"measurement": "EC50", "setting": "BRD2-BD2; Table 8", "value": 0.11, "unit": "µM"}, {"measurement": "EC50", "setting": "BRD3-BD1; Table 4, read-out: BRD3(1)", "value": 1.1, "unit": "µM"}, {"measurement": "EC50", "setting": "BRD3-BD1; Table 6, read-out: EC50 (μM) BRD3(1)", "value": 1.1, "unit": "µM"}, {"measurement": "EC50", "setting": "BRD3-BD1; Table 8, read-out: BRD3(1)", "value": 1.1, "unit": "µM"}, {"measurement": "EC50", "setting": "BRD4-BD1", "value": 0.43, "unit": "µM"}, {"measurement": "4(1)/4(2)", "setting": "BRD4-BD2; Table 4, ratio of EC50", "value": 20.5}, {"measurement": "EC50", "setting": "BRD4-BD2; Table 4, read-out: EC50 (μM) BRD4(2)", "value": 0.021, "unit": "µM"}, {"measurement": "EC50", "setting": "BRDT; Table 4, read-out: BRDT EC50", "value": 4000, "unit": "nM"}, {"measurement": "EC50", "setting": "BRDT; Table 6, head names no target, BRDT by comparison with Table 4, read-out: EC50", "value": 4000, "unit": "nM"}, {"measurement": "EC50", "setting": "BRDT; Table 8, head names no target, BRDT by comparison with Table 4, read-out: EC50", "value": 4000, "unit": "nM"}, {"measurement": "EC50", "setting": "[1]; HD-MB03, Table 5", "value": 0.03, "unit": "µM"}, {"measurement": "EC50", "setting": "[1]; HD-MB03, Table 7", "value": 1.3, "unit": "µM"}, {"measurement": "EC50", "setting": "[1]; HD-MB03, Table 9, c-Myc expression inhibition in HDMB03 cells", "value": 1.3, "unit": "µM"}, {"measurement": "Kd", "setting": "BRD2(1)", "value": 24, "unit": "nM"}, {"measurement": "[2(1)/2(2)]", "setting": "BRD2(2); BROMOscan KD ratio", "value": 36.9}, {"measurement": "Kd", "setting": "BRD2(2); BROMOscan, Table 10", "value": 0.65, "unit": "nM"}, {"measurement": "Kd", "setting": "BRDT(1)", "value": 4.9, "unit": "nM"}, {"measurement": "T(1)/T(2)", "setting": "BRDT(2); BROMOscan KD ratio", "value": 1.0}, {"measurement": "Kd", "setting": "BRDT(2); BROMOscan, Table 10", "value": 4.9, "unit": "nM"}, {"measurement": "IC50", "setting": "[2]", "value": "50 to 200", "unit": "nM"}]}]}
